Data reported in patent US20190322676A1, “CERAMIDE GALACTOSYLTRANSFERASE INHIBITORS FOR THE TREATMENT OF DISEASE” (BioMarin Pharmaceutical Inc., priority 2016, published 2019).
Counter-ions that a name gives are not always drawn.

Target: T1, human CGT (ceramide galactosyltransferase), CHO/CGT lysate (Homo sapiens, UniProt Q16880)
T1 construct: Full-length human CGT cDNA was cloned into the BamH1/Xho1 site of pcDNA3.1 (+); expressed in transfected cells; host or cells: Chinese hamster ovary (CHO) cells; lysate prepared with M-PER
T1 sequence (Q16880 21-541): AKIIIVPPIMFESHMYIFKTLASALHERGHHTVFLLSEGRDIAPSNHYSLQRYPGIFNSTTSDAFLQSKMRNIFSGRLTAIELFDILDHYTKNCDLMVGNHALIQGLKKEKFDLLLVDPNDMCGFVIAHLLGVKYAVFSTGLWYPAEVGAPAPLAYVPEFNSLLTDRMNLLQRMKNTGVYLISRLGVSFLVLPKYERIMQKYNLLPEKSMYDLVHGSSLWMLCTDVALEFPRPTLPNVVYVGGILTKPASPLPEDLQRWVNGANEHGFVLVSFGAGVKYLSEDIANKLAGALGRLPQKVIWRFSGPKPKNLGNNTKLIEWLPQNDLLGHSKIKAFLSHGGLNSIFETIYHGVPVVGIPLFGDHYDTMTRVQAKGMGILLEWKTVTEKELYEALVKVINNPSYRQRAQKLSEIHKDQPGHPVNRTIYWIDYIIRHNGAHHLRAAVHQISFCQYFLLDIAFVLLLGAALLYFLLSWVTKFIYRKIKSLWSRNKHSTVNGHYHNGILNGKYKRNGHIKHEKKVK
Assay: CGT enzyme assay, RapidFire/MS/MS readout (Table 1 ranges with one asterisk *)
Type: biochemical
Conditions: RapidFire method (range with one asterisk *)
Protocol: Full-length human CGT cDNA was cloned into the BamH1/Xho1 site of pcDNA3.1 (+) mammalian expression vector (V90-20, Invitrogen, Carlsbad, Calif.) and the plasmid was transfected into Chinese hamster ovary (CHO) cells. Lysate was prepared using M-PER (Mammalian Protein Extraction Reagent, ThermoFisher Scientific, Grand Island, N.Y.) in the presence of a protease inhibitor cocktail (P8340, Sigma, Saint Louis, Mo.). Each 100 mm dish (100% confluent, approximately 1×10^7 cells) was lysed with 250 μL of M-PER containing protease inhibitors. Protein concentration was determined using a Pierce BCA protein assay kit (ThermoFisher Scientific). Four micrograms of CHO/CGT lysate was incubated with various concentrations of a compound (0.001 μM-50 μM) in 10 mM HEPES (pH 7.2) containing 35 μM dioleoylphosphatidylcholine, 5 mM MgCl2, 5 mM MnCl2, 1% BSA, 15 mM KCl, 1 mM EGTA, 8 mM CHAPS, 10 μM C6-NBD-dihydro-ceramide and 17.5 μM UDP-galactose in a final reaction volume of 20 μL at 37° C. for 1 hour. The final concentration of DMSO was 0.5% in both compound-treated and mock-treated samples. Tween 80 (0.01%) was optionally added to the reaction mixture to help solubilize the compounds. Each individual reaction was diluted with 80 μL of methanol:acetronitrile (1:3) containing 5 μM N-docdecanoyl-NBD-galactosylceramide (internal standard) to stop the reaction. 200 μL H2O:acetonitile (1:1) was added to precipitate the protein. After sufficient mixing, the plates were centrifuged at 2469 g for 38 minutes, 200 μL of supernatant was transferred to a LC/MS 96-deep well plate and a second spin was performed at 2469 g for 10 minutes. The final supernatant was injected in triplicate for RapidFire/MS/MS analysis.
Quantitative Analysis Using the RapidFire/MS/MS Method:
The quantitative analysis of C6-NBD-dihydro-ceramide and C6-NBD-dihydro-galactosylceramide was performed on a Rapid Fire 360 high-throughput mass spectrometry system (Agilent Technologies, Palo Alto, Calif.) coupled with a API4000^+ triple quadrupole mass spectrometer (Applied Biosystems, Concord, Ontario, Canada). RapidFire software packages, including RapidFire Control panel, RapidFire UI and RapidFire Integrator (Agilent Technologies), were used to control the RapidFire instrument and to process data. Analyst 1.6.2 software packages (Applied Biosystems) were used to control the MS system and acquire MS data. […] of sample was loaded on a micro-scale C4 solid-phase extraction (SPE) cartridge (Agilent Technologies) and salts were removed using water supplemented with 0.1% formic acid at the flow rate of 1.5 mL/min for 3 sec. C6-NBD-dihydro-ceramide and C6-NBD-dihydro-galactosylceramide were co-eluted into the mass spectrometer using acetonitrile containing 0.1% formic acid at the flow rate of 1.0 mL/min for 3 sec. The total cycle time of one injection was 8 secs. The MS/MS detection was performed in ESI negative mode. The mass transition of C6-NBD-dihydro-galactosylceramide was m/z 752.6→678.6 using a −40 V collision energy, the mass transition of C6-NBD-dihydro-ceramide was m/z 590.6→115.8 using a −40 V collision energy and the mass transition of N-docdecanoyl-NBD-galactosylceramide was m/z 820.9→746.3 using a −45 V collision energy.
The C6-NBD-dihydro-galactosylceramide reading was normalized first by dividing the peak area of C6-NBD-dihydro-galactosylceramide by the peak area of the internal standard, N-docdecanoyl-NBD-galactosylceramide. IC50 values (see Table 1, where data ranges with one asterix (*) correspond to analysis using the RapidFire/MS/MS method, and data ranges with two asterixes (**) correspond to analysis using the RapidFire/MS/MS method with 0.01% Tween added) were generated from sigmoidal dose-response curves (variable slope) with GraphPad Prism software (GraphPad Software, Inc., San Diego, Calif.) using the normalized peak areas of C6-NBD-dihydro-galactosylceramide or the percent inhibition of C6-NBD-dihydro-galactosylceramide accumulation relative to DMSO control. […]

Which IC50 does the source give for `NC1CC2CCC(C1)N2C(=O)[C@H](NS(=O)(=O)c1ccc(OCC2CCCCC2)cc1)C(F)(F)c1ccc(-c2ccccc2)cc1` (stereo partly drawn) [Compound 35-2, N-((2S)-1-([1,1′-biphenyl]-4-yl)-3-(3-amino-8-azabicyclo[3.2.1]octan-8-yl)-1,1-difluoro-3-oxopropan-2-yl)-4-(cyclohexylmethoxy) benzenesulfonamide trifluoroacetate] here?
Its IC50 is 10 to 30 µM.

Which IC50 does the source give for `NC1CC2CCC(C1)N2C(=O)[C@@H](NS(=O)(=O)c1ccc2cc(OC3CCCC3)ccc2c1)C(F)(F)c1ccc(-c2ccccc2)cc1` (stereo partly drawn) [Compound 36-1, N-((2R)-1-([1,1′-biphenyl]-4-yl)-3-(3-amino-8-azabicyclo[3.2.1]octan-8-yl)-1,1-difluoro-3-oxopropan-2-yl)-6-(cyclopentyloxy)naphthalene-2-sulfonamide trifluoroacetate] here?
The IC50 was less than 1 µM.

With `NC1CC2CCC(C1)N2C(=O)[C@H](NS(=O)(=O)c1ccc2cc(OC3CCCC3)ccc2c1)C(F)(F)c1ccc(-c2ccccc2)cc1` (stereo partly drawn) [Compound 36-2, N-((2S)-1-([1,1′-biphenyl]-4-yl)-3-(3-amino-8-azabicyclo[3.2.1]octan-8-yl)-1,1-difluoro-3-oxopropan-2-yl)-6-(cyclopentyloxy)naphthalene-2-sulfonamide trifluoroacetate] as the compound, how does the IC50 read?
Its IC50 is 1 to 10 µM.

For `CN([C@H](C(=O)N1C2CCC1CC(N)C2)C(F)(F)c1ccc(Br)cc1)S(=O)(=O)c1ccc2cc(OC3CCCCC3)ccc2c1` (stereo partly drawn) [Compound 37-1, N-((2R)-3-(3-amino-8-azabicyclo[3.2.1]octan-8-yl)-1-(4-bromophenyl)-1,1-difluoro-3-oxopropan-2-yl)-6-(cyclohexyloxy)-N-methylnaphthalene-2-sulfonamide trifluoroacetate], which IC50 is on record?
The IC50 was less than 1 µM.

Which IC50 does the source give for `CN([C@@H](C(=O)N1C2CCC1CC(N)C2)C(F)(F)c1ccc(Br)cc1)S(=O)(=O)c1ccc2cc(OC3CCCCC3)ccc2c1` (stereo partly drawn) [Compound 37-2, N-((2S)-3-(3-amino-8-azabicyclo[3.2.1]octan-8-yl)-1-(4-bromophenyl)-1,1-difluoro-3-oxopropan-2-yl)-6-(cyclohexyloxy)-N-methylnaphthalene-2-sulfonamide trifluoroacetate] here?
Its IC50 is 30 to 100 µM.

Which IC50 does the source give for `NC1CC2CCC(C1)N2C(=O)[C@@H](NS(=O)(=O)c1ccc2cc(OC3CCCC3)ccc2c1)C(F)(F)c1ccc2cc(Br)ccc2c1` (stereo partly drawn) [Compound 38-1, N-((2R)-3-(3-amino-8-azabicyclo[3.2.1]octan-8-yl)-1-(6-bromonaphthalen-2-yl)-1,1-difluoro-3-oxopropan-2-yl)-6-(cyclopentyloxy) naphthalene-2-sulfonamide trifluoroacetate] here?
The IC50 was 1 to 10 µM.

Which IC50 does the source give for `NC1CC2CCC(C1)N2C(=O)[C@H](NS(=O)(=O)c1ccc2cc(OC3CCCC3)ccc2c1)C(F)(F)c1ccc2cc(Br)ccc2c1` (stereo partly drawn) [Compound 38-2, N-((2S)-3-(3-amino-8-azabicyclo[3.2.1]octan-8-yl)-1-(6-bromonaphthalen-2-yl)-1,1-difluoro-3-oxopropan-2-yl)-6-(cyclopentyloxy)naphthalene-2-sulfonamide trifluoroacetate] here?
The IC50 was 1 to 10 µM.

How did the IC50 turn out when `NC1CC2CCC(C1)N2C(=O)[C@@H](NS(=O)(=O)c1ccc(OCC2CCCC2)cc1)C(F)(F)c1ccc2cc(Br)ccc2c1` (stereo partly drawn) [Compound 39-1, N-((2R)-3-(3-amino-8-azabicyclo[3.2.1]octan-8-yl)-1-(6-bromonaphthalen-2-yl)-1,1-difluoro-3-oxopropan-2-yl)-4-(cyclopentylmethoxy) benzenesulfonamide trifluoroacetate] was run?
Its IC50 is 1 to 10 µM.

`NC1CC2CCC(C1)N2C(=O)[C@H](NS(=O)(=O)c1ccc(OCC2CCCC2)cc1)C(F)(F)c1ccc2cc(Br)ccc2c1` (stereo partly drawn) [Compound 39-2, N-((2S)-3-(3-amino-8-azabicyclo[3.2.1]octan-8-yl)-1-(6-bromonaphthalen-2-yl)-1,1-difluoro-3-oxopropan-2-yl)-4-(cyclopentylmethoxy)benzenesulfonamide trifluoroacetate] was tested. Which IC50 did it give?
Its IC50 is 10 to 30 µM.

For `NC1CC2CCC(C1)N2C(=O)[C@@H](NS(=O)(=O)c1ccc(OCC2CCCCC2)cc1)C(F)(F)c1ccc2cc(Br)ccc2c1` (stereo partly drawn) [Compound 40-1, N-((2R)-3-(3-amino-8-azabicyclo[3.2.1]octan-8-yl)-1-(6-bromonaphthalen-2-yl)-1,1-difluoro-3-oxopropan-2-yl)-4-(cyclohexylmethoxy) benzenesulfonamide trifluoroacetate], which IC50 is on record?
The IC50 was 1 to 10 µM.

Which IC50 does the source give for `NC1CC2CCC(C1)N2C(=O)[C@H](NS(=O)(=O)c1ccc(OCC2CCCCC2)cc1)C(F)(F)c1ccc2cc(Br)ccc2c1` (stereo partly drawn) [Compound 40-2, N-((2S)-3-(3-amino-8-azabicyclo[3.2.1]octan-8-yl)-1-(6-bromonaphthalen-2-yl)-1,1-difluoro-3-oxopropan-2-yl)-4-(cyclohexylmethoxy)benzenesulfonamide trifluoroacetate] here?
Its IC50 is 10 to 30 µM.

How did the IC50 turn out when `NC1CC2CCC(C1)N2C(=O)[C@@H](NC(=O)[C@@H](O)c1ccc2cc(OC3CCCC3)ccc2c1)C(F)(F)c1ccc(Br)cc1` (stereo partly drawn) [Compound 41-3, (2S)—N-((2R)-3-(3-amino-8-azabicyclo[3.2.1]octan-8-yl)-1-(4-bromophenyl)-1,1-difluoro-3-oxopropan-2-yl)-2-(6-(cyclopentyloxy)naphthalen-2-yl)-2-hydroxyacetamide trifluoroacetate] was run?
Its IC50 is 1 to 10 µM.

How did the IC50 turn out when `NC1CC2CCC(C1)N2C(=O)[C@H](NC(=O)[C@H](O)c1ccc2cc(OC3CCCC3)ccc2c1)C(F)(F)c1ccc(Br)cc1` (stereo partly drawn) [Compound 41-4, (2R)—N-((2S)-3-(3-amino-8-azabicyclo[3.2.1]octan-8-yl)-1-(4-bromophenyl)-1,1-difluoro-3-oxopropan-2-yl)-2-(6-(cyclopentyloxy)naphthalen-2-yl)-2-hydroxyacetamide trifluoroacetate] was run?
The IC50 was 30 to 100 µM.

`NC1CC2CCC(C1)N2C(=O)[C@@H](NC(=O)[C@H](O)c1ccc2cc(OC3CCCC3)ccc2c1)C(F)(F)c1ccc(Br)cc1` (stereo partly drawn) [Compound 41-5, (2R)—N-((2R)-3-(3-amino-8-azabicyclo[3.2.1]octan-8-yl)-1-(4-bromophenyl)-1,1-difluoro-3-oxopropan-2-yl)-2-(6-(cyclopentyloxy)naphthalen-2-yl)-2-hydroxyacetamide trifluoroacetate] was tested. Which IC50 did it give?
The IC50 was 10 to 30 µM.

For `NC1CC2CCC(C1)N2C(=O)[C@H](NC(=O)[C@@H](O)c1ccc2cc(OC3CCCC3)ccc2c1)C(F)(F)c1ccc(Br)cc1` (stereo partly drawn) [Compound 41-6, (2S)—N-((2S)-3-(3-amino-8-azabicyclo[3.2.1]octan-8-yl)-1-(4-bromophenyl)-1,1-difluoro-3-oxopropan-2-yl)-2-(6-(cyclopentyloxy)naphthalen-2-yl)-2-hydroxyacetamide trifluoroacetate], which IC50 is on record?
Its IC50 is 30 to 100 µM.
